In PMC9354638, “Targeting p21-activated kinase 4 (PAK4) with pyrazolo[3,4-d]pyrimidine derivative SPA7012 attenuates hepatic ischaemia-reperfusion injury in mice” (Journal of Enzyme Inhibition and Medicinal Chemistry, 2022):

Molecular target: T1, PAK4 (Homo sapiens, UniProt O96013)
T1 construct: purchased Reaction Biology Corporation (Malvern, PA, USA)
Assay: HotSpot kinase assay (Reaction Biology Corp.), PAK4 enzyme inhibition
Type: biochemical
Settings: ATP 10 μM; for IC50: 10-dose, 3-fold serial dilution starting at 100 μM; for inhibition at 20 µM: relative percentage inhibition at 20 μM of compounds with staurosporine, read-out: PAK4 enzyme inhibition % inhibitory activity
Description: To examine the enzyme activity, HotSpot kinase assay was performed at Reaction Biology Corporation (Malvern, PA, USA). The kinase and substrate pairs were prepared in reaction buffer: 20 mM HEPES at pH 7.5, 10 mM MgCl2, 1 mM EGTA, 0.02% Brij 35, 0.02 mg/mL BSA, 0.1 mM Na3VO4, 2 mM DTT, and 1% DMSO. Compounds were added into the kinase reaction mixture and incubated for 20 min. Then, ^32 P-ATP was introduced to the mixture to initiate the reaction carried out at 10 μM of ATP concentration. After 2 h at room temperature, the mixture was spotted onto P81 ion exchange paper and kinase activity was then evaluated utilising the filter-binding method. Compounds were tested for single dose enzyme inhibition at a concentration of 20 μM. For the control compound, staurosporine was tested in a 10-dose IC50 mode. To determine the IC50 value, the compounds were tested for 10-doses with 3-fold serial dilution starting at 100 μM.
Synthesised compounds were evaluated for their in vitro PAK4 enzyme inhibitory activities. In vitro kinase assays were performed using HotSpot kinase assays for relative enzyme inhibitory activity at a single concentration (20 μM) and IC50 assessment at an ATP concentration of 10 μM (Figure 1(B)). […] For the allosteric pocket binder, cyclohexyl group (SPA7012) was preferable to the smaller dimethyl (SPA7011) or hydroxymethyl group (SPA7013), and the aromatic ring (SPA7014) reduced activity compared to the saturated ring (SPA7012). In vitro enzyme IC50 values appeared in the order of SPA7012, SPA7017, and SPA7016. […] Molecular docking analysis was performed on the human PAK4 catalytic domain structure complexed with GNE-2861 (PDB code: 4O0V). The binding pose of SPA7012 overlapped well with the crystal structure of GNE-2861, with the allosteric binder properly positioned in the specific back pocket. The oxygen atom in the tertiary alcohol of the hydrophobic allosteric binder formed hydrogen bonds with the backbone of Phe459 and the side chain of Glu366 (Figure 1(D)). The amine group and nitrogen atom in the pyrazolo[3,4-d]pyrimidine core scaffold also formed hydrogen bonds with Lue398 at the hinge region. Finally, SPA7012 was decided as a lead compound for further examination with satisfactory potency and subtype selectivity.

T1 sequence (O96013 whole entry): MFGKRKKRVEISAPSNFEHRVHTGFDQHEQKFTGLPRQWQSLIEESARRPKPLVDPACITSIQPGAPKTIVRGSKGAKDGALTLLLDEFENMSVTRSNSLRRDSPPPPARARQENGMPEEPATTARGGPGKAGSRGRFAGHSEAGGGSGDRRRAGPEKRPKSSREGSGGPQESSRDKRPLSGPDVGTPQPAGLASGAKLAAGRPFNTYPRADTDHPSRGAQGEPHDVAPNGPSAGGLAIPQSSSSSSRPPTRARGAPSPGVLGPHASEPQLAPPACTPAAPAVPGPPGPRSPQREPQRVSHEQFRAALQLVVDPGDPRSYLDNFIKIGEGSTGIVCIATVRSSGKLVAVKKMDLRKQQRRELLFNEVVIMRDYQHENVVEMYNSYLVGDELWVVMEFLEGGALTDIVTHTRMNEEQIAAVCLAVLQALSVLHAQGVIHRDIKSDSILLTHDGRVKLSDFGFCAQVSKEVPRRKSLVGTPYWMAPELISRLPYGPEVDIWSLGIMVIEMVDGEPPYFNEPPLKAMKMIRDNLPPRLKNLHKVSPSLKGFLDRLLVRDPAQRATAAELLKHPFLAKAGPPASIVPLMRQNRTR

Row | SMILES | IC50 [µM] | inhibition at 20 µM [%]
1 | Nc1ncnc2c1c(CCCN1CCOCC1)nn2-c1cccc(C#CC2(O)CCCCC2)c1 [Compound 18a, (3–(4-Amino-3–(3-morpholin-4-ylpropyl)pyrazolo[3,4-d]pyrimidin-1-yl)phenylethynyl)cyclohexanol] | 9.92 | 88
2 | Cc1nn(-c2cccc(C#CC(C)(O)CO)c2)c2ncnc(N)c12 (centres unmarked) [Compound 14c, 4–(3-(4-Amino-3-methylpyrazolo[3,4-d]pyrimidin-1-yl)phenyl)-2-methylbutyn-1,2-diol] |  | 36
3 | Cc1nn(-c2cccc(C#CC(C)(C)O)c2)c2ncnc(N)c12 [Compound 14a, 4–(3–(4-Amino-3-methylpyrazolo[3,4-d]pyrimidin-1-yl)phenyl)-2-methylbutyn-2-ol] |  | 60
4 | CC(C)(O)C#Cc1cccc(-n2c3ccccc3c3c(N)nccc32)c1 [Compound 10a, 4–(3–(1-Aminopyrido[4,3-b]indol-5-yl)phenyl)-2-methylbutyn-2-ol] |  | 32
5 | CC(O)(C#Cc1cccc(-n2c3ccccc3c3c(N)nccc32)c1)CO (centres unmarked) [Compound 10c, 4–(3-(1-Aminopyrido[4,3-b]indol-5-yl)phenyl)-2-methylbutyn-1,2-diol] |  | 29
6 | Cc1nn(-c2cccc(C#CC(C)(O)c3ccccc3)c2)c2ncnc(N)c12 (centres unmarked) [Compound 14d, 4–(3-(4-Amino-3-methylpyrazolo[3,4-d]pyrimidin-1-yl)phenyl)-2-phenylbutyn-2-ol] |  | 65
7 | Nc1ncnc2c1c(CCCN1CCCCC1)nn2-c1cccc(C#CC2(O)CCCCC2)c1 [Compound 18b, (3-[4-Amino-3–(3-piperidin-1-ylpropyl)pyrazolo[3,4-d]pyrimidin-1-yl]phenylethynyl)cyclohexanol] | 4.41 | 90
8 | Nc1nccc2c1c1ccccc1n2-c1cccc(C#CC2(O)CCCCC2)c1 [Compound 10b, 3-(1-Aminopyrido[4,3-b]indol-5-yl)phenylethynylcyclohexan-1-ol] | 34 | 54
